From EPA's ToxRefDB 2

Columns and labels:
rat [1] = settings: Subchronic dermal toxicity, sprague dawley, Topical, dose end: 13 week, group: systemic, systemic / in life observation / clinical signs / desquamation + systemic / in life observation / clinical signs / erythema + systemic / in …
rat [2] = settings: Prenatal developmental toxicity study, sprague dawley, Oral, Gavage/Intubation, dose end: 15 GD
rat [3] = settings: Subchronic oral toxicity in rodents, sprague dawley, Feed, dose end: 90 day, group: systemic
dog [4] = settings: Chronic toxicity; beagle; Oral; Feed; dose end: 52 week; group: systemic; systemic / hematology / nucleated red blood cell (nrbc) / nucleated red blood cell (nrbc) + systemic / in life observation / clinical signs…
rat [5] = settings: Multigenerational reproductive toxicity study, sprague dawley, Oral, Feed, dose end: 2 generation
rat [6] = settings: Sub-acute repeat dose toxicity, sprague dawley, Oral, Gavage/Intubation, dose end: 28 day, group: systemic
dog [7] = settings: Sub-acute repeat dose toxicity, beagle, Oral, Gavage/Intubation, dose end: 1 month, group: systemic
rabbit [8] = settings: Prenatal developmental toxicity study; himalayan; Oral; Gavage/Intubation; dose end: 12 GD; group: maternal; systemic / in life observation / body weight / body weight gain + systemic / in life observation / food consumption / food consumption
dog [9] = settings: Chronic toxicity; beagle; Oral; Gavage/Intubation; dose end: 6 month; group: systemic; systemic / hematology / anisocytosis / anisocytosis + systemic / hematology / jolly bodies / jolly bodies + systemic / hematology / myeloid/…
mouse = settings: Subchronic oral toxicity in rodents, cd1, Gavage/Intubation, dose end: 13 week, group: systemic
rabbit [10] = settings: Prenatal developmental toxicity study, himalayan, Oral, Gavage/Intubation, dose end: 18 GD, group: maternal
rat [11] = settings: Fertility (Segment I), sprague dawley, Oral, Gavage/Intubation, dose end: 6 PND
rat [12] = settings: Subchronic oral toxicity in rodents, sprague dawley, Gavage/Intubation, dose end: 13 week, group: systemic
rabbit [13] = settings: Prenatal developmental toxicity study, himalayan, Oral, Gavage/Intubation, dose end: 18 GD
rat [14] = settings: Prenatal developmental toxicity study, sprague dawley, Oral, Gavage/Intubation, dose end: 17 GD
dog [15] = settings: Chronic toxicity; beagle; Oral; Gavage/Intubation; dose end: 12 month; group: systemic; systemic / hematology / erythrocyte (rbc) count differential / erythrocyte (rbc) + systemic / hematology / hematocrit (hct) / hematocrit (…
rat [16] = settings: Chronic toxicity; sprague dawley; Oral; Gavage/Intubation; dose end: 6 month; group: systemic; systemic / clinical chemistry / phosphorus / phosphorus + systemic / clinical chemistry / potassium / potassium + systemic / organ weight / …
[17] = group: developmental, developmental / developmental malformation / bone / bent + systemic / in life observation / body weight / fetal weight
[18] = group: maternal, systemic / in life observation / body weight / body weight + systemic / in life observation / body weight / body weight gain + systemic / in…
[19] = systemic / clinical chemistry / alanine aminotransferase (alt/sgpt) / alanine aminotransferase (alt/sgpt)
[20] = systemic / pathology gross / stomach / discolored + systemic / pathology gross / stomach / foci + systemic / pathology gross / stomach / …
[21] = group: offspring, systemic / in life observation / body weight / offspring (pup) weight + systemic / pathology gross / heart / enlarged + systemic / pathology…
[22] = group: parental, systemic / in life observation / clinical signs / dental fluorosis
[23] = group: parental, systemic / in life observation / clinical signs / dental fluorosis + systemic / in life observation / clinical signs / teeth whitening
[24] = systemic / clinical chemistry / creatinine / creatinine + systemic / clinical chemistry / glucose / glucose + systemic / clinical chemistry…
[25] = systemic / clinical chemistry / creatinine / creatinine + systemic / clinical chemistry / potassium / potassium + systemic / clinical …
[26] = systemic / hematology / [other] / [other] + systemic / hematology / erythrocyte (rbc) count differential / erythrocyte (rbc) + systemic / …
[27] = systemic / hematology / erythrocyte (rbc) count differential / erythrocyte (rbc) + systemic / hematology / hematocrit (hct) / hematocrit (…
[28] = systemic / clinical chemistry / urea nitrogen / urea nitrogen + systemic / hematology / hemoglobin (hgb) / hemoglobin (hgb) + systemic / …
[29] = systemic / in life observation / body weight / body weight gain + systemic / in life observation / food consumption / food consumption
[30] = systemic / in life observation / body weight / body weight gain + systemic / in life observation / food consumption / food consumption + …
[31] = group: maternal, reproductive / reproductive performance / estrous cycle / corpora lutea + reproductive / reproductive performance / implantations / …
[32] = group: parental, systemic / in life observation / body weight / body weight gain + systemic / in life observation / clinical signs / fur (altered appearance…
[33] = group: parental, systemic / in life observation / body weight / body weight gain + systemic / in life observation / food consumption / food efficiency
[34] = systemic / clinical chemistry / phosphorus / phosphorus + systemic / clinical chemistry / potassium / potassium + systemic / clinical …
[35] = systemic / clinical chemistry / phosphorus / phosphorus + systemic / clinical chemistry / urea nitrogen / urea nitrogen + systemic / …
[36] = group: developmental, developmental / developmental malformation / limb / [other] + systemic / in life observation / body weight / fetal weight
[37] = group: maternal, reproductive / reproductive performance / aborted / aborted + reproductive / reproductive performance / premature delivery / premature …
[38] = group: maternal, systemic / in life observation / body weight / body weight gain + systemic / in life observation / food consumption / food consumption
[39] = group: developmental, developmental / developmental malformation / bone / delayed ossification + developmental / developmental malformation / bone / unossified
[40] = group: maternal, systemic / in life observation / body weight / body weight gain + systemic / in life observation / food consumption / food consumption + …

SMILES: CCC(C)(C)c1ccc(O)cc1 [4-(2-Methylbutan-2-yl)phenol]
- LEL (rat [1]): 10 mg/kg/day
- LOAEL (rat [1]): 10 mg/kg/day
- NEL (rat [1]): 2.5 mg/kg/day
- NOAEL (rat [1]): 2.5 mg/kg/day
- LEL (rat [2]; [17]): 500 mg/kg/day
- LOAEL (rat [2]; [17]): 500 mg/kg/day
- NEL (rat [2]; [17]): 200 mg/kg/day
- NOAEL (rat [2]; [17]): 200 mg/kg/day
- LEL (rat [2]; [18]): 200 mg/kg/day
- LOAEL (rat [2]; [18]): 200 mg/kg/day
- NEL (rat [2]; [18]): 50 mg/kg/day
- NOAEL (rat [2]; [18]): 50 mg/kg/day

SMILES: [F][Al-3]([F])([F])([F])([F])[F].[Na+].[Na+].[Na+] [Cryolite]
- LEL (rat [3]; [19]): 4.5 mg/kg/day
- NEL (rat [3]; [19]): < 4.5 mg/kg/day
- LOAEL (rat [3]; [20]): 399 mg/kg/day
- NOAEL (rat [3]; [20]): 3.8 mg/kg/day
- LEL (dog [4]): 95 mg/kg/day
- LOAEL (dog [4]): 95 mg/kg/day
- NEL (dog [4]): < 95 mg/kg/day
- NOAEL (dog [4]): < 95 mg/kg/day
- LOAEL (rat [5]; group: offspring, systemic / in life observation / body weight / offspring (pup) weight): 128 mg/kg/day
- LEL (rat [5]; [21]): 128 mg/kg/day
- NEL (rat [5]; [21]): 42 mg/kg/day
- NOAEL (rat [5]; [21]): 42 mg/kg/day
- LOAEL (rat [5]; [22]): 14 mg/kg/day
- NOAEL (rat [5]; [22]): < 14 mg/kg/day
- LEL (rat [5]; [23]): 14 mg/kg/day
- NEL (rat [5]; [23]): < 14 mg/kg/day

SMILES: CC(=O)S[C@H](C(=O)N[C@H]1Cc2ccccc2[C@H]2CCC[C@@H](C(=O)O)N2C1=O)C(C)C [Ilepatril]
- LOAEL (rat [6]; [24]): > 1000 mg/kg/day
- NOAEL (rat [6]; [24]): ≥ 1000 mg/kg/day
- LEL (rat [6]; [25]): 30 mg/kg/day
- NEL (rat [6]; [25]): < 30 mg/kg/day
- LOAEL (dog [7]; [26]): 50 mg/kg/day
- NOAEL (dog [7]; [26]): 10 mg/kg/day
- LEL (dog [7]; [27]): 10 mg/kg/day
- NEL (dog [7]; [27]): < 10 mg/kg/day
- LEL (rabbit [8]): 0.8 mg/kg/day
- LOAEL (rabbit [8]): > 2 mg/kg/day
- NEL (rabbit [8]): 0.32 mg/kg/day
- NOAEL (rabbit [8]): ≥ 2 mg/kg/day
- LEL (dog [9]): 30 mg/kg/day
- LOAEL (dog [9]): > 30 mg/kg/day
- NEL (dog [9]): 10 mg/kg/day
- NOAEL (dog [9]): ≥ 30 mg/kg/day
- LOAEL (mouse; [25]): > 1600 mg/kg/day
- NOAEL (mouse; [25]): ≥ 1600 mg/kg/day
- LEL (mouse; [28]): 400 mg/kg/day
- NEL (mouse; [28]): < 400 mg/kg/day
- LEL (rabbit [10]; [29]): 0.8 mg/kg/day
- LOAEL (rabbit [10]; [29]): 0.8 mg/kg/day
- NEL (rabbit [10]; [30]): 0.32 mg/kg/day
- NOAEL (rabbit [10]; [30]): 0.32 mg/kg/day
- LEL (rat [11]; [31]): 1000 mg/kg/day
- LOAEL (rat [11]; [31]): > 1000 mg/kg/day
- NEL (rat [11]; [31]): 100 mg/kg/day
- NOAEL (rat [11]; [31]): ≥ 1000 mg/kg/day
- LOAEL (rat [11]; [32]): > 1000 mg/kg/day
- NOAEL (rat [11]; [32]): ≥ 1000 mg/kg/day
- LEL (rat [11]; [33]): 10 mg/kg/day
- NEL (rat [11]; [33]): < 10 mg/kg/day
- LOAEL (rat [12]; [34]): > 1600 mg/kg/day
- NOAEL (rat [12]; [34]): ≥ 1600 mg/kg/day
- LEL (rat [12]; [35]): 400 mg/kg/day
- NEL (rat [12]; [35]): < 400 mg/kg/day
- LEL (rabbit [13]; group: developmental, developmental / developmental malformation / limb / [other]): 3.2 mg/kg/day
- LOAEL (rabbit [13]; [36]): > 160 mg/kg/day
- NEL (rabbit [13]; [36]): 1 mg/kg/day
- NOAEL (rabbit [13]; [36]): ≥ 160 mg/kg/day
- LOAEL (rabbit [13]; [37]): > 160 mg/kg/day
- NOAEL (rabbit [13]; [37]): ≥ 160 mg/kg/day
- LEL (rabbit [13]; [38]): 1 mg/kg/day
- NEL (rabbit [13]; [38]): < 1 mg/kg/day
- LEL (rat [14]; [39]): 300 mg/kg/day
- LOAEL (rat [14]; [39]): 300 mg/kg/day
- NEL (rat [14]; [39]): 30 mg/kg/day
- NOAEL (rat [14]; [39]): 30 mg/kg/day
- LEL (rat [14]; [38]): 300 mg/kg/day
- LOAEL (rat [14]; [38]): 300 mg/kg/day
- NEL (rat [14]; [40]): 30 mg/kg/day
- NOAEL (rat [14]; [40]): 30 mg/kg/day
- LEL (dog [15]): 12 mg/kg/day
- LOAEL (dog [15]): > 12 mg/kg/day
- NEL (dog [15]): 6 mg/kg/day
- NOAEL (dog [15]): ≥ 12 mg/kg/day
- LEL (rat [16]): 10 mg/kg/day
- LOAEL (rat [16]): > 1000 mg/kg/day
- NEL (rat [16]): < 10 mg/kg/day
- NOAEL (rat [16]): ≥ 1000 mg/kg/day
